According to patent publication US20260193149A1, “[…] USEFUL MINERAL AMINO ACID COMPLEXES” (Statera Ag, LLC, priority 2022, published 2026):
Several values for one entry are separate records, joined by “and”; a condition that tells them apart may be missing. Identical values can stand only once.

Columns and labels:
corn [1] = experiment: Boron absorption into corn leaf after foliar application, growth stage V5 (Example 4)
Experimental: Each solution was applied independently of one another at these rates, and the applications emulated commercial application conditions, with 30-inch spacings. The test solutions were applied to three different fields to allow for data replication. The corn was at growth stage V5 during the test. Each test solution was evenly applied using a portable foliar applicator ([…] M18 sprayer with a four-gallon tank). Application time per row was recorded to allow for the calculation of an average application rate of the applicator. Any remaining application solution was weighed to allow for the exact calculation of applied solution per acre (converted below to ounces per acre). The solution application rates are reported below in Table 11 and boron application rates are reported below in Table 12. Applications were done in the heat of the day (96° F.), with minimal wind to preclude drift. Control strips for each product at both application rates were identified, and tissue samples from the control strips were collected to reflect an application rate of 0.00 ounces of product per 68 ounces of water.
Tissues were collected after two days using standard tissue collection procedures. Twelve top collar leaves were collected per row. The leaf samples were placed in paper bags and sent to a commercial lab for leaf mineral analysis using ICP-AA.
The application rates reported above Table 11 were adjusted by the concentration of the applied product so that the data could be compared on an equivalent basis, which are reported in Table 12. Tissue boron was regressed against the adjusted applied rates using the Fit Y×X model of SAS JMP (v. 15.0). The Experimental Unit was Field.
Five chemical compounds containing boron were evaluated. The slope of the line was defined according to the following equation: […]

corn [2] = experiment: Boron absorption into corn leaf after foliar application, growth stage V7 (Example 5); type: in vivo; details: leaves collected after two days
Experimental: The same procedure of Example 4 was followed for this Example, and the same application solutions at rate 2 were used and applied to three separate fields of corn at growth stage V7.
Twelve top collar leaves were collected per row.
Tissue boron data were analyzed using the Fit Y×X module of SAS JMP (v. 15.0). The tissue data were compared using the Oneway Analysis option. Means for boric acid and boron lysinate were separated using the Student's t-test.

[3] = corn V5, foliar application, top collar leaves collected after two days, slope of tissue boron vs applied boron

| Molecule | B Absorption, ppm/oz applied B (corn [1]; corn, in vivo, 2 days) [ppm/oz applied B] | increase of corn tissue boron for every ounce of boron applied (corn [1]; corn, in vivo, 2 days) [ppm] | decrease of boron absorbed into leaf tissue compared to boric acid (corn [1]; corn V5, Example 4) [ppm] | B Absorption, ppm/oz applied B (corn [1]; [3]) [ppm/oz applied B] | boron absorption greater than boric acid (corn [1]; corn V5, Example 4) | increase of corn tissue boron for every ounce of boron applied (corn [1]; corn V5, Example 4, per ounce applied boron) [ppm] | Boron Absorption, ppm/oz B (corn [2]) | Boron Absorption, ppm/oz B (corn [2]; listed as boron lysinate) [ppm/oz B] |
| --- | --- | --- | --- | --- | --- | --- | --- | --- |
| OB(O)O [Boric acid, boric acid, reference compound] | 4.58 | 4.58 | – | – | – | – | – | – |
| ethanolamine boron [Boron ethanolamine, reference compound] | – | – | 0.45 | 4.13 | – | – | – | – |
| boron lysinate | – | – | – | 7.66 | 3.92 ppm and 3.08 ppm | 7.66 | 13.13 ppm/oz B and 13.13^b ppm/oz B | 13.13 |
